{
  "source": "patent US20130004504A1",
  "about": "“METHOD OF MODULATING PHENYLALANINE HYDROXYLASE STRUCTURE AND FUNCTION” (Fox Chase Cancer Center, priority 2011, published 2013)",
  "molecules": {"B1": {"name": "Full length untagged rat phenylalanine hydroxylase (PAH), purified by the Shiman affinity method (enzyme, UniProt P04176 2-453, looked up)", "chain": "AAVVLENGVLSRKLSDFGQETSYIEDNSNQNGAISLIFSLKEEVGALAKVLRLFEENDINLTHIESRPSRLNKDEYEFFTYLDKRTKPVLGSIIKSLRNDIGATVHELSRDKEKNTVPWFPRTIQELDRFANQILSYGAELDADHPGFKDPVYRARRKQFADIAYNYRHGQPIPRVEYTEEEKQTWGTVFRTLKALYKTHACYEHNHIFPLLEKYCGFREDNIPQLEDVSQFLQTCTGFRLRPVAGLLSSRDFLGGLAFRVFHCTQYIRHGSKPMYTPEPDICHELLGHVPLFSDRSFAQFSQEIGLASLGAPDEYIEKLATIYWFTVEFGLCKEGDSIKAYGAGLLSSFGELQYCLSDKPKLLPLELEKTACQEYSVTEFQPLYYVAESFSDAKEKVRTFAATIPRPFSVRYDPYTQRVEVLDNTQQLKILADSINSEVGILCNALQKIKS", "notes": "mature; Homo-oligomer found predominantly as tetramer, with some dimer; also called rat PAH"}, "B2": {"name": "Full length human phenylalanine hydroxylase (PAH), cleaved from an N-terminal MBP fusion construct (enzyme, UniProt P00439 1-452, looked up)", "chain": "MSTAVLENPGLGRKLSDFGQETSYIEDNCNQNGAISLIFSLKEEVGALAKVLRLFEENDVNLTHIESRPSRLKKDEYEFFTHLDKRSLPALTNIIKILRHDIGATVHELSRDKKKDTVPWFPRTIQELDRFANQILSYGAELDADHPGFKDPVYRARRKQFADIAYNYRHGQPIPRVEYMEEEKKTWGTVFKTLKSLYKTHACYEYNHIFPLLEKYCGFHEDNIPQLEDVSQFLQTCTGFRLRPVAGLLSSRDFLGGLAFRVFHCTQYIRHGSKPMYTPEPDICHELLGHVPLFSDRSFAQFSQEIGLASLGAPDEYIEKLATIYWFTVEFGLCKQGDSIKAYGAGLLSSFGELQYCLSEKPKLLPLELEKTAIQNYTVTEFQPLYYVAESFNDAKEKVRNFAATIPRPFSVRYDPYTQRIEVLDNTQQLKILADSINSEIGILCSALQKIK", "notes": "mature; also called human PAH"}},
  "key": {"[1]": {"molecular_target": "T1, rat PAH (Rattus norvegicus, UniProt P04176)", "T1 construct": "expression vectors for full length untagged rat and human PAH from Prof; P. Fitzpatrick; made in house", "T1 sequence (P04176 1-453)": "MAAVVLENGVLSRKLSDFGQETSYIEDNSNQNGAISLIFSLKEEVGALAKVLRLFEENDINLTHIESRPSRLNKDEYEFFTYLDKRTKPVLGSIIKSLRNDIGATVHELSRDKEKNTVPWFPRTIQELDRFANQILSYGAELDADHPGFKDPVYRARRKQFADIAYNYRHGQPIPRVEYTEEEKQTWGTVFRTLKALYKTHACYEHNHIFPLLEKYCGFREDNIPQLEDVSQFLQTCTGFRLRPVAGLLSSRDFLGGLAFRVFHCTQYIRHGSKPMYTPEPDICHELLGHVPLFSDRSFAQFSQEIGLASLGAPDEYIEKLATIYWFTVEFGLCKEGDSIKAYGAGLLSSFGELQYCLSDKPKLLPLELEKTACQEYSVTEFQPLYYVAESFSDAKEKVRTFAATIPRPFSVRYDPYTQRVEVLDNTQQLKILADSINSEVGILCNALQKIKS", "assay": "Native PAGE (PhastGel Western blot) of rat PAH quaternary structure equilibrium", "settings": "~1 mg/ml rat PAH, overnight, RT; 1 mM or 50 μM Phe, 75 μM BH4", "protocol": "(§1) FIG. 7 represents preliminary results on purified mammalian PAH. […] Full length human PAH, cleaved from an N-terminal MBP fusion construct, runs at a dimer:tetramer ratio of ˜2:1 on a calibrated Superdex-200 column. With 1 mM Phe added to the running buffer, this ratio is shifted to ˜1:1. Buffers contain 125 mM KCl, which is known to stabilize the tetramer. FIG. 7B represents preliminary kinetic studies on purified rat PAH, monitoring tyrosine fluorescence, showing “order of addition” effects at 300 μM Phe and 75 μM BH4. […] FIG. 7E is a full length rat PAH ([…]), run on a 1 ml HiTrap Q column in 30 mM Tris-HCl with a KCl gradient (B=400 mM KCl). […] FIG. 7F is native PhastGel Western blot showing the effects of ligands on the rat PAH quaternary structure equilibrium (overnight, RT, ˜1 mg/ml). Lane 1—as purified; Lane 2—1 mM Phe; Lane 3—50 μM Phe; Lane 4—75 μM BH4; Lane 5, 50 μPhe+75 μM BH4.\n(§2) With regard to the oligomeric equilibrium, rat PAH (in 15% glycerol) is found to be predominantly tetrameric by both native PAGE and SEC (FIGS. 7C & 7D). […] Coupled with the SEC results in FIG. 7D, this illustrates that IEC can be used to separate two tetramers, 4mer and 4mer*."}, "[2]": {"molecular_target": "T1, rat PAH", "assay": "SEC of purified rat PAH (Superdex 200)", "settings": "Phe in running buffer (FIG. 7D)", "protocol": "as §1, §2"}, "[3]": {"molecular_target": "T1, rat PAH", "assay": "Ion exchange chromatography of rat PAH (HiTrap Q, KCl gradient)", "settings": "1 mM Phe in the elution buffer, 30 mM Tris-HCl, KCl gradient (FIG. 7E)", "protocol": "as §1, §2"}, "[4]": {"molecular_target": "T2, PAH (Rattus norvegicus, UniProt P04176)", "T2 sequence (P04176 1-453)": "T1 sequence (P04176 1-453)", "settings": "cited from earlier work"}, "[5]": {"molecular_target": "the molecule itself", "assay": "SEC on Superdex 200 (FIG. 7D); self-association"}, "[6]": {"molecular_target": "the molecule itself", "assay": "SEC on calibrated Superdex-200, buffer with 125 mM KCl, no Phe; self-association of PAH subunits", "protocol": "as §1"}, "[7]": {"molecular_target": "the molecule itself", "assay": "SEC on calibrated Superdex-200, buffer with 125 mM KCl and 1 mM Phe; self-association of PAH subunits", "protocol": "as §1"}},
  "note": "Like-named read-outs stand apart in the source and are kept apart here.",
  "data": [
    {"molecule": "N[C@@H](Cc1ccccc1)C(=O)O", "note": "[Phe, phenylalanine]", "values": [
      {"measurement": "effect on distribution of PAH quaternary structure isoforms by native PAGE", "setting": "[1]", "value": "alters the distribution of PAH quaternary structure isoforms"},
      {"measurement": "effect on tetramer predominance by SEC", "setting": "[2]", "value": "not altered"},
      {"measurement": "effect on IEC elution profile", "setting": "[3]", "value": "dramatically alters the elution profile"}
    ]},
    {"molecule": "C[C@H](O)[C@H](O)[C@H]1CNc2nc(N)[nH]c(=O)c2N1", "note": "[BH4, tetrahydrobiopterin]", "values": [
      {"measurement": "Kd", "setting": "[4]; high-activity forms of PAH, read-out: Kd, binding to the high-activity forms of PAH", "value": "~14", "unit": "µM"},
      {"measurement": "Kd", "setting": "[4]; low-activity form(s) of PAH, read-out: Kd, binding to the low-activity form(s) of PAH", "value": "~0.1", "unit": "µM"}
    ]},
    {"molecule": "B1", "values": [
      {"measurement": "binding result", "setting": "[5]", "value": "binds"}
    ]},
    {"molecule": "B2", "values": [
      {"measurement": "dimer:tetramer ratio", "setting": "[6]", "value": "~2 dimer:tetramer ratio (x:1)"},
      {"measurement": "dimer:tetramer ratio", "setting": "[7]", "value": "~1 dimer:tetramer ratio (x:1)"}
    ]}
  ]
}
